Source: article PMC11123956, “Nobiletin Stimulates Adrenal Hormones and Modulates the Circadian Clock in Mice” (Nutrients, 2024)

Key:
[1] = tested on: Bmal1 mRNA; assay: Real-time RT-PCR of Bmal1 mRNA in peripheral tissues; format: in vivo, mice; conditions: after a single treatment
Experimental: Male C57BL/6J mice (7 weeks old) were purchased from Charles River Japan (Kanagawa, Japan) and used for the serum hormone assay and RT-PCR. Male ICR mice were purchased from Tokyo Laboratory Animals Science Co., Ltd. (Tokyo, Japan), and female PERIOD2::LUCIFERASE (PER2::LUC) knock-in mice (ICR background) bred at Waseda University were used for blood glucose measurements and in vivo imaging assays, respectively. The mice were all housed under conditions of controlled temperature (23 °C ± 3 °C), humidity (50% ± 20%), and lighting (lights on from 07:00 to 19:00 at Taisho Pharmaceutical Co., Ltd. or from 08:00 to 20:00 at Waseda University). In the 24 h cycle, Zeitgeber time 0 (ZT0) was designated as the time when the lights were turned on, and ZT12 was designated as the time when the lights were turned off. All the mice were given access to food and tap water ad libitum, and nobiletin (10–100 mg/kg; purchased from FUJIFILM Wako Pure Chemical Corporation, Osaka, Japan) was administered by intraperitoneal (i.p.) injection in the vehicle (10 mL/kg body weight) containing 0.5% carboxymethyl cellulose (CMC). Rolipram (PDE4 inhibitor, FUJIFILM Wako Pure Chemical Corporation) and SR1078 (RORα/γ agonist, FUJIFILM Wako Pure Chemical Corporation) were also used for the experiment at 10 mg/kg in 0.5% CMC [12]. Mice were euthanized by rapid decapitation for whole blood samples.
Figure 3 Nobiletin stimulated adrenaline and corticosterone secretion, and induced acute clock gene expression changes. (A–C) Mice received intraperitoneal injections of control (0.5% CMC) or nobiletin (10 or 100 mg/kg) at ZT3. (A) Serum corticosterone at 1 h after treatment (n = 6 in each). $$$ p < 0.001 by Tukey’s multiple comparisons test. (B) Serum corticosterone and adrenaline at 1, 2, and 4 h after treatment (n = 4 in each). # p < 0.05 vs. control at each time point by Mann–Whitney test; ** p < 0.01 vs. control at each time point by Student’s t-test. (C) Blood glucose changes after treatment (n = 9 in each). Statistics of 2-way repeated ANOVA are indicated on the graph. […]

[2] = tested on: serum corticosterone; assay: Serum corticosterone ELISA after i.p. injection; format: in vivo, mice; conditions: 100 mg/kg i.p. at ZT3, 1 h after administration
Experimental: Male C57BL/6J mice (7 weeks old) were purchased from Charles River Japan (Kanagawa, Japan) and used for the serum hormone assay and RT-PCR. Male ICR mice were purchased from Tokyo Laboratory Animals Science Co., Ltd. (Tokyo, Japan), and female PERIOD2::LUCIFERASE (PER2::LUC) knock-in mice (ICR background) bred at Waseda University were used for blood glucose measurements and in vivo imaging assays, respectively. The mice were all housed under conditions of controlled temperature (23 °C ± 3 °C), humidity (50% ± 20%), and lighting (lights on from 07:00 to 19:00 at Taisho Pharmaceutical Co., Ltd. or from 08:00 to 20:00 at Waseda University). In the 24 h cycle, Zeitgeber time 0 (ZT0) was designated as the time when the lights were turned on, and ZT12 was designated as the time when the lights were turned off. […]
Serum corticosterone, adrenaline, and adreno-corticotropic hormone (ACTH) levels, and corticotropin releasing factor (CRF) in the hypothalamus, were measured using enzyme-linked immunosorbent assay (ELISA). […] Blood glucose levels were measured using a Glucose PILOT kit (Aventir Biotech, LLC, Carlsbad, CA, USA). The range of blood glucose that could be precisely measured with the kit was 20–600 mg/dL. […]

**Q.** What does the source list for `COc1ccc(-c2cc(=O)c3c(OC)c(OC)c(OC)c(OC)c3o2)cc1OC` [nobiletin]?
**A.** Bmal1 expression [1]: did not change significantly; serum corticosterone levels [2]: increase
